In series [1] the test system is parental IL-3 dependent Ba/F3 cells. The series can be described thus: cells. The note with it: Mus musculus, BaF3, read-out: GI50, Ba/F3 parental.
Series [2] concerns chronic myelogenous leukemia. Particulars: CML patients; about 30% prior to any targeted therapy; cited from earlier work.
The next series deals with PDGFRβ (Homo sapiens (Human), UniProt P09619). The series can be described thus: NanoSyn single-concentration kinase inhibition. The format is biochemical. Particulars: read-out: % inhibition at 100 nM, PDGFRβ.
Another series addresses PDGFRα (Homo sapiens (Human), UniProt P16234). Nature of the series: NanoSyn single-concentration kinase inhibition. In kind it is biochemical. The note with it: read-out: % inhibition at 100 nM, PDGFRα.
The target in series [3] is T1, VEGFR2 (KDR) (Homo sapiens (Human), UniProt P35968). Nature of the series: biochemical. Particulars: read-out: % inhibition at 100 nM, VEGFR2 (KDR), 100 nM.
T1 sequence (P35968 20-1356, species assumed): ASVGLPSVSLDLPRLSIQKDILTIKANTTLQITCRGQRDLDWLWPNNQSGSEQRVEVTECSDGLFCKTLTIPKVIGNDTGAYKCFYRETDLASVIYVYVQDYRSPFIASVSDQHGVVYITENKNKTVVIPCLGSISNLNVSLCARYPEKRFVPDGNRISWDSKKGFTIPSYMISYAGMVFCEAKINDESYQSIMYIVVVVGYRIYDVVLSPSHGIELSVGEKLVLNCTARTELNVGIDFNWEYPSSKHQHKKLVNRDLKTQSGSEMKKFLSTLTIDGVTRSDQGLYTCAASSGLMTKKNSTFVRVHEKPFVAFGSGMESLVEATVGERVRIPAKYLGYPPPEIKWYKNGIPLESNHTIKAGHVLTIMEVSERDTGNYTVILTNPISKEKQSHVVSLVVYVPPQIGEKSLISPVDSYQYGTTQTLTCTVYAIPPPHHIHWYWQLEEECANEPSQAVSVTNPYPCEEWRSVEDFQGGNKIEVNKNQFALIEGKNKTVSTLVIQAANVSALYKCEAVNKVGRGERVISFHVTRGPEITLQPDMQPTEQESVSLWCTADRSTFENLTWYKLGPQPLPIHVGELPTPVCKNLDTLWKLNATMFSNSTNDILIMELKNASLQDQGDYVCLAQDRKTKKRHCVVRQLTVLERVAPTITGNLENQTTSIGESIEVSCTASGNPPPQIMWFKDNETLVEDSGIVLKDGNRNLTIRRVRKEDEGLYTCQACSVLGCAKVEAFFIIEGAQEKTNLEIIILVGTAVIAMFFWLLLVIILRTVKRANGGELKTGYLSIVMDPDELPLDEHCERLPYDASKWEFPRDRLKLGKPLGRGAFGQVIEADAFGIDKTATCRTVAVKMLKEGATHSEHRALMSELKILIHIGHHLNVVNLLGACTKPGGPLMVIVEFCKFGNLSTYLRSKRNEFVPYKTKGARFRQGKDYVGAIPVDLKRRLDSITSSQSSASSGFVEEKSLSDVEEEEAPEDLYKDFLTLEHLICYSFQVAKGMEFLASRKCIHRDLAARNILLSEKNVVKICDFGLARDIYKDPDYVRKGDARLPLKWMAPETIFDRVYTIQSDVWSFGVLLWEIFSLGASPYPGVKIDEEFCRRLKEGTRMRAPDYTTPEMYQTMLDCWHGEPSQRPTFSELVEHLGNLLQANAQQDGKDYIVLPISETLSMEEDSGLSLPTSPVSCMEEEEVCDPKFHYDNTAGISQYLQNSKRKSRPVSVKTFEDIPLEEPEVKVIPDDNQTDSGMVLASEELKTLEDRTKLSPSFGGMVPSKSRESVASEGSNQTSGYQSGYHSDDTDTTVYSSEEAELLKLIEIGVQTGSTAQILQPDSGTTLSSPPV
In a further series the target is C-Raf (Homo sapiens (Human), UniProt P04049). Nature of the series: NanoSyn single-concentration kinase inhibition. The note with it: read-out: % inhibition at 100 nM, C-Raf. The format is biochemical.
The target in a further series is FGFR3 (Homo sapiens (Human), UniProt P22607). Nature of the series: NanoSyn single-concentration kinase inhibition. The note with it: read-out: % inhibition at 100 nM, FGFR3. The format is biochemical.
Another series deals with VEGFR3 (FLT4) (Homo sapiens (Human), UniProt P35916). The series can be described thus: NanoSyn single-concentration kinase inhibition. The format is biochemical. The note with it: read-out: % inhibition at 100 nM, VEGFR3 (FLT4).
The next series has as its system BV-173. The series can be described thus: Growth inhibition (GI50) in BV-173 CML cells. In kind it is cell-based. Particulars: Homo sapiens, BV-173, read-out: GI50, BV-173.
A further series addresses FLT3 (Homo sapiens (Human), UniProt P36888). Nature of the series: NanoSyn single-concentration kinase inhibition. In kind it is biochemical. The note with it: read-out: % inhibition at 100 nM, FLT3.
A further series deals with BV-173R. The series can be described thus: Growth inhibition (GI50) in BV-173R CML cells. The format is cell-based. Particulars: read-out: GI50, BV-173R.
The target of the next series is Csk (Homo sapiens (Human), UniProt P41240). Nature of the series: NanoSyn single-concentration kinase inhibition. The format is biochemical. The note with it: read-out: % inhibition at 100 nM, Csk.
The target of the next series is VEGFR1 (FLT1) (Homo sapiens (Human), UniProt P17948). The series can be described thus: NanoSyn single-concentration kinase inhibition. In kind it is biochemical.
Sequence of VEGFR1 (FLT1) (P17948 27-1338, species assumed): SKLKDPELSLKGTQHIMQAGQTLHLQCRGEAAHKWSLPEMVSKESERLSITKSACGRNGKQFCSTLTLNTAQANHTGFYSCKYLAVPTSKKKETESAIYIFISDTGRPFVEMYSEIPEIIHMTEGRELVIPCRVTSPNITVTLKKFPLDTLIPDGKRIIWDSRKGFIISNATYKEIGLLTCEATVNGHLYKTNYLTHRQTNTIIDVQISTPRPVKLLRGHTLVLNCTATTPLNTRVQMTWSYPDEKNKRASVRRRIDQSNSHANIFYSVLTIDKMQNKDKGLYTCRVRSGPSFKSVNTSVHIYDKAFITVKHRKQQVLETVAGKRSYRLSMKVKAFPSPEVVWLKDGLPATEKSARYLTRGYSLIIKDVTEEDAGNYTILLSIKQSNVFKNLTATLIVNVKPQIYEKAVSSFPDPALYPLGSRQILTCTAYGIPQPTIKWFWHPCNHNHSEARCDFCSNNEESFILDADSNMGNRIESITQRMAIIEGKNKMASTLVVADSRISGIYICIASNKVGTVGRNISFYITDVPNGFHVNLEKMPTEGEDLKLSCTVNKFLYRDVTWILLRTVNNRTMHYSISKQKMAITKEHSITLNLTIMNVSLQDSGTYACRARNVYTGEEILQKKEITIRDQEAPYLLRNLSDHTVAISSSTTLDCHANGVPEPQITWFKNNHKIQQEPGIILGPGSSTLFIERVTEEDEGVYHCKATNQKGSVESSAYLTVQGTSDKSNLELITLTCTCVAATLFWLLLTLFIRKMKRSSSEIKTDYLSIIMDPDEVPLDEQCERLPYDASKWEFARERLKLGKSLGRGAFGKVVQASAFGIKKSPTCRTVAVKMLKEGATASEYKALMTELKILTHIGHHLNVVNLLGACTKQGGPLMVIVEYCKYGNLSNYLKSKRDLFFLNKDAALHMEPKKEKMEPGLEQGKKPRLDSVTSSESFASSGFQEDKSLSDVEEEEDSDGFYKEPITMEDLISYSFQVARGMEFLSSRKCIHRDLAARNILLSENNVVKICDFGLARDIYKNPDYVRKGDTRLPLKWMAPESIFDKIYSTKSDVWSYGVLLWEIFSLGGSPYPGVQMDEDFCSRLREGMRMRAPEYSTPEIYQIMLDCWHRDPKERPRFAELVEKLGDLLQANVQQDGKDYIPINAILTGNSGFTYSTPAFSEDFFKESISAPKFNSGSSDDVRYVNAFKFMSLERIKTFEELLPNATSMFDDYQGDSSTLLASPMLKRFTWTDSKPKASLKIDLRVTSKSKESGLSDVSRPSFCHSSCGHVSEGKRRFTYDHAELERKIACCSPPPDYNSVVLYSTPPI
Another series has as its target Abl2/Arg (Homo sapiens (Human), UniProt P42684). The series can be described thus: NanoSyn single-concentration kinase inhibition. Particulars: read-out: % inhibition at 100 nM, Abl2/Arg. The format is biochemical.
A further series has as its target EPH-A3 (Homo sapiens (Human), UniProt P29320). The series can be described thus: NanoSyn single-concentration kinase inhibition. In kind it is biochemical. The note with it: read-out: % inhibition at 100 nM, EPH-A3.
For series [4] the following is noted: phase I trial, cited from earlier work.
The target of a further series is Lck (Homo sapiens (Human), UniProt P06239). Nature of the series: NanoSyn single-concentration kinase inhibition. Particulars: read-out: % inhibition at 100 nM, Lck. In kind it is biochemical.
Another series deals with Lyn-A (Homo sapiens (Human), UniProt P07948). The series can be described thus: NanoSyn single-concentration kinase inhibition. The format is biochemical. Particulars: read-out: % inhibition at 100 nM, Lyn-A.
For a further series, the target named is Tie2 (Homo sapiens (Human), UniProt Q02763). The series can be described thus: NanoSyn single-concentration kinase inhibition. In kind it is biochemical. The note with it: read-out: % inhibition at 100 nM, Tie2.
The next series has as its target FGFR1 (Homo sapiens (Human), UniProt P11362). The series can be described thus: NanoSyn single-concentration kinase inhibition. The note with it: read-out: % inhibition at 100 nM, FGFR1. In kind it is biochemical.
Series [5] addresses T1, VEGFR2 (KDR).
The target of a further series is MAP4K5 (Homo sapiens (Human), UniProt Q9Y4K4). The series can be described thus: NanoSyn single-concentration kinase inhibition. The note with it: read-out: % inhibition at 100 nM, MAP4K5. In kind it is biochemical.
In the next series the test system is K562. Nature of the series: Growth inhibition (GI50) in K562 CML cells. In kind it is cell-based. The note with it: Homo sapiens, K562, read-out: GI50, K562.

These results are taken from patent US10196378B2, “Inhibitors of BCR-ABL mutants and use thereof” (THE REGENTS OF THE UNIVERSITY OF MICHIGAN, priority 2016, dated 2019).

The structures appear in SMILES notation.

Sequence of Abl2/Arg (P42684 whole entry): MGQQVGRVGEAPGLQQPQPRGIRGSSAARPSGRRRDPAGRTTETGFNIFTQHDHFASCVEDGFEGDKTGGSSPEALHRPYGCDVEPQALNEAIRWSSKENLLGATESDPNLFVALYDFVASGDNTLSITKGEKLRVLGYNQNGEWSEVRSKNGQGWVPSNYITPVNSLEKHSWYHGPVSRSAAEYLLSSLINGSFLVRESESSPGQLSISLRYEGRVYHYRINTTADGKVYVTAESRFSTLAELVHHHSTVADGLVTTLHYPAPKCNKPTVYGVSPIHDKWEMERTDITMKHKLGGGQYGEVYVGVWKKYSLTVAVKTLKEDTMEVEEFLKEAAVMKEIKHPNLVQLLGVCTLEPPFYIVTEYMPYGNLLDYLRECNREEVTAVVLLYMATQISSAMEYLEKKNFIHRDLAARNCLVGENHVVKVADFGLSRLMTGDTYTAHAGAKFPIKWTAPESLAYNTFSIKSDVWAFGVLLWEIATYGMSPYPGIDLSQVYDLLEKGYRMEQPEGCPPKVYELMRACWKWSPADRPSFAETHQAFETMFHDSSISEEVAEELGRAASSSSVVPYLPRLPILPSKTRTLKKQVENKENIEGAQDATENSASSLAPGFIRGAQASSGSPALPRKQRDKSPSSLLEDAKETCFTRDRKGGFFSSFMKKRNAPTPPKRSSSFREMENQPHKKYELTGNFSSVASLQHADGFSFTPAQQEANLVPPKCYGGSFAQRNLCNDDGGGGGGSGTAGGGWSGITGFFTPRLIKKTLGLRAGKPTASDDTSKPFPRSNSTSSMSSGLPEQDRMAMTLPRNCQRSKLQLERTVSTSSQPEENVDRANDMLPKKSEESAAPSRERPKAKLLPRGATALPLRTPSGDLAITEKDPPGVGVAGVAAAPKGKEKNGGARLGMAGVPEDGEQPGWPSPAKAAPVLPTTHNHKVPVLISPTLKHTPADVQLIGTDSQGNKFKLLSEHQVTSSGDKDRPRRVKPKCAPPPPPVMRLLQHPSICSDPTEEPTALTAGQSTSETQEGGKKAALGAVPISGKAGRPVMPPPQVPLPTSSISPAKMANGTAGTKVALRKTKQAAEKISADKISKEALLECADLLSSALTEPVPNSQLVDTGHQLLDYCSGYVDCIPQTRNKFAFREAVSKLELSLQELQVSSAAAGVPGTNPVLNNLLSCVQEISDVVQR
Sequence of PDGFRα (P16234 24-1089, species assumed): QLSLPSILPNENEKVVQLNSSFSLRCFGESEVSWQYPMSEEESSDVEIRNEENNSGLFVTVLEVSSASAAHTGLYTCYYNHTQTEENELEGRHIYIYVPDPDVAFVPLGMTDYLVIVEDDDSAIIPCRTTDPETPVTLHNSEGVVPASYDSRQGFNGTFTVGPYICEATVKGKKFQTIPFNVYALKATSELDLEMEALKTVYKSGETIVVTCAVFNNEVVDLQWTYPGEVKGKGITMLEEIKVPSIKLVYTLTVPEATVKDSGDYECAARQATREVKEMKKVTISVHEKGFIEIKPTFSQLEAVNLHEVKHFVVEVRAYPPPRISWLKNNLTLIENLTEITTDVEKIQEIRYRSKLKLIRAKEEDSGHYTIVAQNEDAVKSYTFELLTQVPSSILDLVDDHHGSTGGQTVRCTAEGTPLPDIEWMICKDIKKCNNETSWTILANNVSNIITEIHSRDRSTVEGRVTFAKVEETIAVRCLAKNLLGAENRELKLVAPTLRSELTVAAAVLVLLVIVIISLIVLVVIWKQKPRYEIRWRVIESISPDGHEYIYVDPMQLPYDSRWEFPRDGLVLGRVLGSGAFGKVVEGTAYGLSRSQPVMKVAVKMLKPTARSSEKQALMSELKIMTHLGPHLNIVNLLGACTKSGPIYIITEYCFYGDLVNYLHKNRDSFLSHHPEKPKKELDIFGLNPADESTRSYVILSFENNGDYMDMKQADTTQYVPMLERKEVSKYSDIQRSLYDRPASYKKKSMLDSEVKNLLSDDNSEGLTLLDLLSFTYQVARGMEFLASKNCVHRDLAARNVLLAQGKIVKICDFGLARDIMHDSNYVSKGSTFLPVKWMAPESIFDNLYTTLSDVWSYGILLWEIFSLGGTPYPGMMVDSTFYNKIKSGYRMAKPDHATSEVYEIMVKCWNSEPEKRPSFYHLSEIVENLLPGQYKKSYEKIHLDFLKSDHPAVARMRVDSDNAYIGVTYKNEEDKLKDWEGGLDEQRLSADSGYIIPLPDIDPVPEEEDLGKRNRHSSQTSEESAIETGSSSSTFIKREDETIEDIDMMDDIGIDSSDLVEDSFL

Regarding `CNC(=O)c1cc(Oc2ccc(NC(=O)Nc3ccc(CN4CCN(C)CC4)c(C(F)(F)F)c3)cc2)ccn1` [Compound C01], the GI50 in series [1] is 4.84 µM.
Consider `CN1CCN(Cc2ccc(NC(=O)Nc3ccc(Oc4ccncc4)cc3)cc2C(F)(F)F)CC1` [Compound C02], for which the GI50 in series [1] came to 5 µM.
In the case of `CN1CCN(Cc2ccc(NC(=O)Nc3ccc(Oc4ccc5ncncc5c4)cc3)cc2C(F)(F)F)CC1` [Compound C03], in [1], the GI50 came out at 5.58 µM.
Turning to `CN1CCN(Cc2ccc(NC(=O)Nc3ccc(Nc4ccc5ncccc5c4)cc3)cc2C(F)(F)F)CC1` [Compound C04], the GI50 in [1] worked out at 5.12 µM.
Same read-out and setting: the value for `CN1CCN(Cc2ccc(NC(=O)Nc3ccc(Oc4ccc5ncccc5c4)cc3)cc2C(F)(F)F)CC1` [Compound C05] was 5.3 µM; that for `CN1CCN(Cc2ccc(NC(=O)Nc3ccc(Oc4ccc5cccnc5c4)cc3)cc2C(F)(F)F)CC1` [Compound C06] was 5.22 µM.
Regarding `Cc1ccc(NC(=O)c2ccc(CN3CCN(C)CC3)cc2)cc1Nc1nccc(-c2cccnc2)n1` [imatinib], in series [2], the “5-year overall survival rate” value is listed as 90%.
With `Cc1ccc(C(=O)Nc2ccc(CN3CCN(C)CC3)c(C(F)(F)F)c2)cc1C#Cc1cnc2cccnn12` [ponatinib], the inhibition at 0.1 µM on PDGFRβ was found to be 108%; on PDGFRα, 98%; at VEGFR2 (KDR) [3] it was 100%; on C-Raf, 118%; on FGFR3 it was 91%; at VEGFR3 (FLT4), 100%. The inhibition at 0.1 µM was determined as 95% on FLT3; 100% at Csk; 100% on VEGFR1 (FLT1) (read-out: % inhibition at 100 nM, VEGFR1 (FLT1), 100 nM); 99% on Abl2/Arg; 101% on EPH-A3; 99% at Lck. Also, the inhibition at 0.1 µM on Lyn-A worked out at 99%; on Tie2, 95%; on FGFR1, 102%; on MAP4K5 it was 102%. In addition, the GI50 worked out at 0.006 µM in the series with BV-173, 0.015 µM in the series on BV-173R and 0.0025 µM in the series with K562. In addition, the “% inhibition at 100 nM, VEGFR1 (FLT1)” value at VEGFR1 (FLT1) (100 nM) is recorded as 107%. Also, the “patients with serious vascular AEs” value in series [4] (median follow-up of 2.7 years) is listed as 48%. In addition, the “patients who developed arterial or venous thrombosis and occlusions” value in series [4] was “Twenty-seven”. Also, the “patients with heart failure, including fatalities” value in series [4] is 8%. Further, the “% inhibition at 100 nM, VEGFR2 (KDR)” value on VEGFR2 (KDR) [5] is recorded as 102%.
